Key:
[1] = mn = molality of the nth substance listed, in mol/kg; conditions: 101 kPa, Liquid, m1 = 0.25
[2] = refractive index (Na D-line) (dimensionless); mn = molality of the nth substance listed, in mol/kg; conditions: 101 kPa, Liquid, Standard Abbe refractometry, m1 = 0.25

[Cl][Fe][Cl] [ferrous chloride] + O
Conditions	mass density, [1] [kg/m3]	refractive index, [2]
288.15 K	998.9	1.3375
293.15 K	998.2	1.3468
298.15 K	997	1.3559
303.15 K	996	1.3661
308.15 K	995	1.3768
313.15 K	994.5	1.3874
318.15 K	993.8	1.398

Source: the NIST ThermoML archive (doi:10.1021/je100151b)
